Data on 4 molecules can be found in patent US20230190611A1, “PERSONAL CARE COMPOSITIONS COMPRISING A METAL PIROCTONE COMPLEX” (Conopco, Inc., d/b/a UNILEVER, priority 2020, published 2023).

Structures are written as SMILES.

Data set [1] is described as follows: Solubility of metal piroctone complexes in 5 wt% aqueous SLES 1EO solution. The data set is classed as physicochemical. The settings on record: 1% sample in 5 wt% aqueous solution of SLES 1EO at 20° C. How it is done: The solubility of metal piroctone complexes at 20° C. in a 5 wt% aqueous solution of SLES 1EO (sodium lauryl ether sulfate) Is listed in Table 1: […]

A short description of data set [2]: UV stability of ethanolic solutions. The data set is classed as physicochemical. To be noted: 5 hours of UV irradiation (UVA 180 uW/cm2, UVB210 uW/cm2). The method, then:
The UV stability of an ethanolic solutions (0.5 mM) of copper piroctone and manganese piroctone were measured and compared with a solution of Octopirox 1 mM solution.

Take `Cc1cc(CC(C)CC(C)(C)C)n([O-])c(=O)c1.Cc1cc(CC(C)CC(C)(C)C)n([O-])c(=O)c1.[Zn+2]` (stereo not shown) [1% Zn—PIR, Zinc bis-piroctone, reference compound]: in data set [1], the “% Solubility” value stood at 111.8%.
As to `Cc1cc(CC(C)CC(C)(C)C)n([O-])c(=O)c1.Cc1cc(CC(C)CC(C)(C)C)n([O-])c(=O)c1.[Cu+2]` (stereo not shown) [1% Cu—PIR, Copper bis-piroctone], in data set [1], the “% Solubility” value came to 1.3%. Besides, the “degraded after UV irradiation” value in data set [2] (ethanolic solution 0.5 mM) is given as 1.8%.
With `Cc1cc(CC(C)CC(C)(C)C)n([O-])c(=O)c1.Cc1cc(CC(C)CC(C)(C)C)n([O-])c(=O)c1.[Mn+2]` (stereo not shown) [1% Mn—PIR, Manganese bis-piroctone], in data set [1], the “% Solubility” value came to 1.0%. Further, the “degraded after UV irradiation” value in data set [2] (ethanolic solution 0.5 mM) came out at 3.2%.
Consider `Cc1cc(CC(C)CC(C)(C)C)n(O)c(=O)c1.NCCO` (stereo not shown) [1% OCT, piroctone olamine, reference compound], for which the “% Solubility” value in data set [1] was 100.2%. For the same molecule, the “degraded after UV irradiation” value in data set [2] (1 mM solution) was 46%.
